Data from ChEMBL document CHEMBL1121398, “Synthetic modulators of the complement system. 1. Synthesis and biological activity of 5,5',5''-[1,3,6-naphthalenetriyltris(sulfonylimino)]-tris[1,3-benzenedisulfonic acid] hexasodium salt” (1980).
In brackets after ≈: the same amount, converted by molar mass.

Assays:
[1] = Inhibition of the complement alternative pathway by Mercaptan-treated human erythrocytes lyse in autologous serum via the alternative pathway activated by cobra venom factor in the presence of appropriate serial twofold dilutions of the test compound
[2] = species: Homo sapiens; experiment: Ability to destroy fluid-phase human complement 1 in the presence of complement 4 with appropriate serial twofold dilutions of the test compound using C1 assay
[3] = tested on: Cavia porcellus; experiment: Evaluated in vivo after intraperitoneal administration by guinea pig assay; type: functional
[4] = species: Cavia porcellus; experiment: Evaluated in vitro for complement activity using guinea pig serum was determined by cap 50 assay; type: functional; conditions: for EC50: read-out: ED50 (the source's name)
[5] = species: Homo sapiens; experiment: The ability to inhibit late component of human complement (C3-C9) using C-late assay

Structure (SMILES) | ED50 [1] [µg/mL] | ED50 [2] [µg/mL] | Inhibition [3] [%] | EC50 [4] [µg/mL] | ED50 [5] [µg/mL] | Activity [4] [µg/mL]
O=S(=O)([O-])c1cc(NS(=O)(=O)c2ccc3c(S(=O)(=O)Nc4cc(S(=O)(=O)[O-])cc(S(=O)(=O)[O-])c4)cc(S(=O)(=O)Nc4cc(S(=O)(=O)[O-])cc(S(=O)(=O)[O-])c4)cc3c2)cc(S(=O)(=O)[O-])c1.[Na+].[Na+].[Na+].[Na+].[Na+].[Na+] | 21 | 0.7 | 86 | 21 | 12 | 
Nc1ccc2cc(S(=O)(=O)[O-])cc(O)c2c1/N=N/c1ccc(NC(=O)Nc2ccc(/N=N/c3c(N)ccc4cc(S(=O)(=O)[O-])cc(O)c34)c(S(=O)(=O)[O-])c2)cc1S(=O)(=O)[O-].[Na+].[Na+].[Na+].[Na+] | 167 | 21 | >95 |  | 6 | 113
Cc1ccc(C(=O)Nc2ccc(S(=O)(=O)O)c3cc(S(=O)(=O)O)cc(S(=O)(=O)O)c23)cc1NC(=O)c1cccc(NC(=O)Nc2cccc(C(=O)Nc3cc(C(=O)Nc4ccc(S(=O)(=O)O)c5cc(S(=O)(=O)O)cc(S(=O)(=O)O)c45)ccc3C)c2)c1 [SURAMIN] | 167 | 21 | 44 | 603 (≈ 465 µM) | 50 (≈ 38.5 µM) | 
